Source: patent publication EP4610269A1, “UROKINASE PLASMINOGEN ACTIVATOR SURFACE RECEPTOR (UPAR) LIGANDS FOR DIAGNOSTIC OR THERAPEUTIC USE” (3B Pharmaceuticals GmbH, priority 2024, dated 2025)
Where a SMILES comes first, the peptide text is derived from it. Bridges are numbered along the chain shown (N, C = ends). [ ]: non-standard residue; d: D form. The star is where a group is joined. DOTA = O=C(O)CN1CCN(CC(=O)O)CCN(CC(=O)*)CCN(CC(=O)O)CC1; Pro(cis-4-F) = O=C(O)[C@@H]1C[C@H](F)CN1; Dopa = N[C@@H](Cc1ccc(O)c(O)c1)C(=O)O; Hyp = O=C(O)[C@@H]1C[C@@H](O)CN1; Butoxycarbonyl = CCCCOC(=O)*; Nva = CCC[C@H](N)C(=O)O; Pentanoyl = CCCCC(=O)*

Assays:
[1] = biological target: T1, human uPAR (uPAR-Fc) (Homo sapiens, UniProt Q03405); test: Surface plasmon resonance (SPR) assay, single cycle kinetics; assay type: binding; settings: pKD category for uPAR SPR activity assay; uPAR-Fc on Protein A-Chip, 25°C; read-out: pKD CAT (converted)
T1 construct: comprising amino acids Leu23-Arg303 according to UniProt entry Q03405.1; purchased R&D Systems 10378-UK-100
How it was run: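 uPAR-Fc (Leu23-Arg303 extracellular domains, human IgG1 Fc) captured on Protein A chip to ~2000 RU; single-cycle kinetics at 25°C in HEPES running buffer pH 7.4 with 0.1% DMSO. KD from double-referenced sensorgrams fitted to 1:1 Langmuir model, reported as pKD.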

[2] = Plasma stability assay (mouse plasma); assay type: in vitro ADME; settings: mouse plasma (sodium citrate 3.7%), 37°C, LC-MS quantification, read-out: % intact compound remaining after 6h incubation Mouse plasma
Protocol: (§1) In order to determine the stability of selected compounds of the invention in human and mouse plasma, a plasma stability assay was carried out. Such plasma stability assay measures degradation of compounds of the present invention in blood plasma. This is an important characteristic of a compound as compounds, with the exception of pro-drugs, which rapidly degrade in plasma, generally show poor in vivo efficacy. […] The stability is sufficient for the diagnostic, therapeutic and theragnostic use of these compounds according to the present invention.
(§2) The plasma stability samples were prepared by spiking 50 µl plasma aliquots (all sodium citrate 3.7%) with 1 µl of a 0.5 mM compound stock solution in DMSO. After vortexing the samples were incubated in a Thermomixer at 37°C for 0 and 6 hours. After incubation the samples were stored on ice until further treatment. All samples were prepared in duplicates.
A suitable internal standard was added to each sample (1 µl of a 0.5 mM stock solution in DMSO). Protein precipitation was performed using two different methods depending on the compound conditions as indicated in Table 13. • A) 250 µl of acetonitrile containing 1% trifluoroacetic acid was added. After incubation at room temperature for 30 min the precipitate was separated by centrifugation and 150 µl of the supernatant was diluted with 150 µl of 1% aqueous formic acid. • B) 150 µl of a zinc sulphate precipitation agent containing 78% 0.1 M zinc sulphate and 22% acetonitrile was added. After incubation at room temperature for 30 min the precipitate was separated by centrifugation. To 100 µl of the supernatant 10 µl of 1% formic acid was added followed by further incubation at 60°C for 10 min to complete the formation of the zinc chelate, if the compound contains a free DOTA moiety.
The determination of the analyte in the clean sample solutions was performed on an Agilent 1290 UHPLC system coupled to an Agilent 6530 Q-TOF mass spectrometer. The chromatographic separation was carried out on a Phenomenex BioZen XB-C18 HPLC column (50 x 2 mm, 1.7 µm particle size).
Two different elution gradients were applied using a mixture of 0.1% formic acid in water as eluent A and acetonitrile as eluent B: • A) 2% B to 41% in 7 min, 800 µl/min, 40°C. • B) 5% B to 50% B in 6 min, 800 µL/min, 40°C.
Mass spectrometric detection was performed in positive ion ESI mode by scanning the mass range from m/z 50 to 3000 with a sampling rate of 2 / sec.
From the mass spectrometric raw data the ion currents for the double or triple charged monoisotopic signal was extracted for both, the compound and the internal standard.
(§3) Quantitation was performed by external matrix calibration with internal standard using the integrated analyte signals.
(§4) Additionally, recovery was determined by spiking a pure plasma sample that only contained the internal standard after treatment with a certain amount of the compound.
(§5) Carry-over was evaluated by analysis of a blank sample (20% acetonitrile) after the highest calibration sample.
The result is stated as "% intact compound remaining after 6 h incubation" and means that from the amount of material at the start of the experiment the stated percentage is detected as unchanged material at the end of the experiment by LC-MS quantification. Since all compounds are more than 50% intact after 6 h they are considered as stable enough for diagnostic and therapeutic applications. Table 13: Results of the plasma stability assay

[3] = Plasma stability assay (human plasma); assay type: in vitro ADME; settings: human plasma (sodium citrate 3.7%), 37°C, LC-MS quantification, read-out: % intact compound remaining after 6h incubation Human plasma
Protocol: as §1, §2
A suitable internal standard was added to each sample (1 µl of a 0.5 mM stock solution in DMSO). Protein precipitation was performed using two different methods depending on the compound conditions as indicated in Table 13. • A) 250 µl of acetonitrile containing 1% trifluoroacetic acid was added. […]
as §3, §4, §5
The result is stated as "% intact compound remaining after 6 h incubation" and means that from the amount of material at the start of the experiment the stated percentage is detected as unchanged material at the end of the experiment by LC-MS quantification. […]

[4] = biological target: T2, uPAR-expressing HEC-265 human endometrial adenocarcinoma cells (Homo sapiens, UniProt Q03405); test: Competitive FACS binding assay; settings: pIC50 category of FACS binding
T2 construct: Cell surface uPAR-expressing HEC-265 human endometrial adenocarcinoma cells; host or cells: HEC-265
How it was run: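 HEC-265 cells incubated 1 h at 4 °C with 10 nM biotinylated uPAR peptide tracer plus increasing test compound, then stained with APC-streptavidin on ice. Median APC fluorescence by flow cytometry; 4PL fit gives pIC50.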

T2 sequence (Q03405 23-335): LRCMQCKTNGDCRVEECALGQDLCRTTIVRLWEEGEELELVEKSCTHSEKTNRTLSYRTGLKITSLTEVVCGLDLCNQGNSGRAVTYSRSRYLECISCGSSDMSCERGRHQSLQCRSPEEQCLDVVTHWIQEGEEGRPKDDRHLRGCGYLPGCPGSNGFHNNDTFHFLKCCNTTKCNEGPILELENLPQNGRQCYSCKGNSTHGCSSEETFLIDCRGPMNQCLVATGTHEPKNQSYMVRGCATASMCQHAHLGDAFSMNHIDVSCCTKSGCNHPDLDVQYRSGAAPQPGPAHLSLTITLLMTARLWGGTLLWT
T1 sequence (Q03405 23-303): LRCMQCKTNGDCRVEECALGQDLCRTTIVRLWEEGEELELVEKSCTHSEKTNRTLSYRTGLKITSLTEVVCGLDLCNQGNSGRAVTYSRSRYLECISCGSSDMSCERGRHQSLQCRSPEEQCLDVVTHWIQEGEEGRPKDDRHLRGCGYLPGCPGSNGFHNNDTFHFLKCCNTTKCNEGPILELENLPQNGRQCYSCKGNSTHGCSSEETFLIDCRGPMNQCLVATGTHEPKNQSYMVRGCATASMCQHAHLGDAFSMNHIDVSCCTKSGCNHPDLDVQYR

Compound	Kd [1]	remaining at 6 h, 9.8 µM [2]	remaining at 6 h, 9.8 µM [3]	IC50 [4]
CCCCOC(=O)N[C@H]1CSSC[C@@H](C(N)=O)NC(=O)[C@H](CCC)NC(=O)[C@H]([C@@H](C)CC)NC(=O)[C@@H]2C[C@@H](O)CN2C(=O)[C@@H]2C[C@H](F)CN2C(=O)[C@H](Cc2ccccc2)NC(=O)[C@H](Cc2ccc(O)c(O)c2)NC(=O)[C@H](CCCCNC(=O)CN2CCN(CC(=O)O)CCN(CC(=O)O)CCN(CC(=O)O)CC2)NC(=O)[C@H]([C@@H](C)O)NC1=O [UPAR-249, Butoc-[Cys-Thr-Lys(DOTA)-Dopa-Phe-4Cfp-Hyp-Ile-Nva-Cys]-NH2] (Butoxycarbonyl-CTK(DOTA)[Dopa]F[Pro(cis-4-F)][Hyp]I[Nva]C-NH2; disulfide 1-10)	< 1.58 nM	22%	64%	≤ 10 nM
CCCCC(=O)N[C@H]1CSSC[C@@H](C(N)=O)NC(=O)[C@H](CCC)NC(=O)[C@H]([C@@H](C)CC)NC(=O)[C@@H]2C[C@@H](O)CN2C(=O)[C@@H]2CCCN2C(=O)[C@H](Cc2ccccc2)NC(=O)[C@H](Cc2ccc(O)cc2)NC(=O)[C@H](CCCCNC(=O)CN2CCN(CC(=O)O)CCN(CC(=O)O)CCN(CC(=O)O)CC2)NC(=O)[C@H]([C@@H](C)O)NC1=O [UPAR-301, Pent-[Cys-Thr-Lys(DOTA)-Tyr-Phe-Pro-Hyp-Ile-Nva-Cys]-NH2] (Pentanoyl-CTK(DOTA)YFP[Hyp]I[Nva]C-NH2; disulfide 1-10)	< 1.58 nM	91%	> 95%	≤ 10 nM
